For one data set, the system named is HBV. Put plainly: Anti-HBV activity in HepG2.2.15 cells (HBV DNA in culture medium by qPCR). Type of data set: cell-based. Conditions: Hepatitis B virus, HepG2.2.15, 144 h, HepG2.2.15 cells, 6 days treatment, HBV DNA in culture medium quantified by real-time PCR; read-out: EC50. The method, boiled down:
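HepG2.2.15 cells in 2% FBS medium at 37 °C were treated with compounds for 6 days, with medium and compound refreshed at day 3; 1:3 dilutions, 8 concentrations in triplicate, top 10 or 1 uM. HBV DNA in culture medium quantified by qPCR to derive EC50; CC50 from parallel plates (top 100 uM).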

A short description of data set [1]: Cytotoxicity determination in HepG2.2.15 cells (CCK-8 cell viability). Format: cell-based. Conditions: human, 6 days treatment, CCK-8 assay, highest concentration 100 uM. In outline:
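HepG2.2.15 cells seeded at 5,000 cells/well in 2% FBS medium, exposed 6 days to compounds (8-point 1:3 dilutions from 100 uM, triplicate), refreshed at day 3. Viability read by CCK-8 after 2.5 h at 37° C, absorbance 450 nm with 630 nm reference; CC50 calculated.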

The source of these data is US20230083012A1, “DIHYDROPYRIMIDINE DERIVATIVES AND USES THEREOF IN THE TREATMENT OF HBV INFECTION OR OF HBV-INDUCED DISEASES” (priority 2019, published 2023).

The structures appear in SMILES notation.

As for `CCOC(=O)C1=C(CN2CC(F)(F)[C@H]3[C@@H]2CCN3C[C@H](C)C(=O)O)NC(c2nccs2)=N[C@H]1c1cccc(F)c1Cl` (single isomer, unassigned) [Compound 149B], the EC50 in the data set on HBV came to 0.0019 µM. Further, half-maximal cytotoxicity in data set [1] (CC50 at 6 days) was put at 34.1 µM.
For `CCOC(=O)C1=C(CN2CC(F)(F)[C@H]3[C@@H]2CCN3c2ncc(C(=O)O)cn2)NC(c2nccs2)=N[C@H]1c1cccc(F)c1C` (single isomer, unassigned) [Compound 150], in the data set with HBV, the 50% effective concentration (EC50) turned out to be 0.057 µM. Also, it took 15 µM to reach half-maximal cytotoxicity in data set [1] (CC50 at 6 days).
For `CCCOC(=O)C1=C(CN2CC(F)(F)[C@H]3[C@@H]2CCN3CCC(C)(C)C(=O)O)NC(c2nccs2)=N[C@H]1c1cccc(F)c1C` (single isomer, unassigned) [Compound 151] the same measures were 0.0187 µM and 9.3 µM.
As to `Cc1c(F)cccc1[C@@H]1N=C(c2nccs2)NC(CN2CC(F)(F)[C@H]3[C@@H]2CCN3CCC(C)(C)C(=O)O)=C1C(=O)OC(C)C` (single isomer, unassigned) [Compound 152], in the data set on HBV, the EC50 was determined as 0.0618 µM. This compound registered a CC50 at 6 days in data set [1] of 12.7 µM.
For `CCOC(=O)C1=C(CN2CC(F)(F)[C@H]3[C@@H]2CC(C)N3CCC(C)(C)C(=O)O)NC(c2nccs2)=N[C@H]1c1cccc(F)c1C` (single isomer, unassigned) [Compound 153] the same measures were 0.006 µM and 21.8 µM.
Consider `CCOC(=O)C1=C(CN2CC(F)(F)[C@H]3[C@@H]2CC2(CC2)N3CCC(C)(C)C(=O)O)NC(c2nccs2)=N[C@H]1c1cccc(F)c1C` (single isomer, unassigned) [Compound 154], for which the 50% effective concentration (EC50) with HBV turned out to be 0.071 µM. This compound showed a CC50 at 6 days in data set [1] of 48.3 µM.
With `CCOC(=O)C1=C(CN2CC(F)(F)[C@H]3[C@@H]2CCN3CC23CC(C(=O)O)(C2)C3)NC(c2nccs2)=N[C@H]1c1cccc(F)c1C` (single isomer, unassigned) [Compound 155], the EC50 in the data set on HBV came to 0.0007 µM. In addition, it took 10 µM to reach half-maximal cytotoxicity in data set [1] (CC50 at 6 days).
For `CCOC(=O)C1=C(CN2CC(F)(F)[C@H]3[C@@H]2CC(=O)N3CCCC(C)(C)C(=O)O)NC(c2nccs2)=N[C@H]1c1cccc(F)c1C` (single isomer, unassigned) [Compound 156] the same measures were 0.063 µM and 10.3 µM.
On to `[2H]C1([2H])C[C@H]2[C@@H](N1CCC(C)(C)C(=O)O)C(F)(F)CN2CC1=C(C(=O)OCC)[C@H](c2cccc(F)c2C)N=C(c2nccs2)N1` (single isomer, unassigned) [Compound 157], for which the concentration giving a half-maximal response (EC50) in the data set with HBV came to 0.0008 µM. This compound showed a CC50 at 6 days in data set [1] of 24.8 µM.
For `CCOC(=O)C1=C(CN2CC(F)(F)[C@H]3[C@@H]2CC(=O)N3[C@H]2CC[C@@H](C(=O)O)CC2)NC(c2nccs2)=N[C@H]1c1cccc(F)c1C` (single isomer, unassigned) [Compound 158A] the same measures were 0.0531 µM and 27.9 µM.
Turning to `CCOC(=O)C1=C(CN2CC(F)(F)[C@H]3[C@@H]2CC(=O)N3[C@H]2CC[C@H](C(=O)O)CC2)NC(c2nccs2)=N[C@H]1c1cccc(F)c1C` (single isomer, unassigned) [Compound 158B], the EC50 in the data set on HBV worked out at 0.0526 µM. Moreover, in data set [1], the 50% cytotoxic concentration (CC50) at 6 days worked out at 16.6 µM.
For `CCOC(=O)C1=C(CN2CC(F)(F)[C@H]3[C@@H]2CCN3CC(C)(C)C(=O)O)NC(c2nccs2)=N[C@@H]1c1ccc(F)nc1C` (single isomer, unassigned) [Compound 159, 3-((cis)-4-((5-(ethoxycarbonyl)-6-(6-fluoro-2-methylpyridin-3-yl)-2-(thiazol-2-yl)-3,6-dihydropyrimidin-4-yl)methyl)-6,6-difluorohexahydropyrrolo[3,2-b]pyrrol-1(2H)-yl)-2,2-dimethylpropanoic acid] the same measures were 0.0006 µM and 75.7 µM.
For `COC(=O)C1=C(CN2CC(F)(F)[C@@H]3[C@H]2CON3CCC(C)(C)C(=O)O)NC(c2nccs2)=N[C@H]1c1cccc(F)c1C` (single isomer, unassigned) [Compound 160] the same measures were 0.014 µM and 100 µM.
As to `COC(=O)C1=C(CN2CC(F)(F)[C@@H]3[C@H]2CON3CCC(C)(C)C(=O)O)NC(c2nccs2)=N[C@H]1c1ccc(F)c(F)c1C` (single isomer, unassigned) [Compound 161, (cis)-4-(4-((6-(3,4-difluoro-2-methylphenyl)-5-(methoxycarbonyl)-2-(thiazol-2-yl)-3,6-dihydropyrimidin-4-yl)methyl)-6,6-difluorohexahydro-1H-pyrrolo[3,2-c]isoxazol-1-yl)-2,2-dimethylbutanoic acid], the half-maximal effective concentration (EC50) in the data set on HBV turned out to be 0.008 µM. In data set [1], this compound registered a 50% cytotoxic concentration (CC50) at 6 days greater than 50 µM.
For `COC(=O)C1=C(CN2CC(F)(F)[C@@H]3[C@H]2CON3CCC(C)(C)C(=O)O)NC(c2nccs2)=N[C@H]1c1ccc(F)c(F)c1Cl` (single isomer, unassigned) [Compound 162, (cis)-4-(4-((6-(2-chloro-3,4-difluorophenyl)-5-(methoxycarbonyl)-2-(thiazol-2-yl)-3,6-dihydropyrimidin-4-yl)methyl)-6,6-difluorohexahydro-1H-pyrrolo[3,2-c]isoxazol-1-yl)-2,2-dimethylbutanoic acid] the same measures were 0.005 µM and 50 µM.
For `CCOC(=O)C1=C(CN2CC(F)(F)[C@@H]3[C@H]2CON3CCC(C)(C)C(=O)O)NC(c2nccs2)=N[C@H]1c1ccc(F)c(F)c1Cl` (single isomer, unassigned) [Compound 163, (cis)-4-(4-((6-(2-chloro-3,4-difluorophenyl)-5-(ethoxycarbonyl)-2-(thiazol-2-yl)-3,6-dihydropyrimidin-4-yl)methyl)-6,6-difluorohexahydro-1H-pyrrolo[3,2-c]isoxazol-1-yl)-2,2-dimethylbutanoic acid] the same measures were 0.002 µM and 45.6 µM.
For `CCOC(=O)C1=C(CN2CC(F)(F)[C@@H]3[C@H]2CON3CCC(C)(C)C(=O)O)NC(c2nccs2)=N[C@@H]1c1ccc(F)c(F)c1C` (single isomer, unassigned) [Compound 164, (cis)-4-(4-((6-(3,4-difluoro-2-methylphenyl)-5-(ethoxycarbonyl)-2-(thiazol-2-yl)-3,6-dihydropyrimidin-4-yl)methyl)-6,6-difluorohexahydro-1H-pyrrolo[3,2-c]isoxazol-1-yl)-2,2-dimethylbutanoic acid] the same measures were 0.003 µM and greater than 25 µM.
On to `CCOC(=O)C1=C(CN2CC(F)(F)[C@@H]3[C@H]2CON3CCC(C)(C)C(=O)O)NC(c2nc(C)cs2)=N[C@H]1c1cccc(F)c1C` (single isomer, unassigned) [Compound 165, (cis)-4-(4-((5-(ethoxycarbonyl)-6-(3-fluoro-2-methylphenyl)-2-(4-methylthiazol-2-yl)-3,6-dihydropyrimidin-4-yl)methyl)-6,6-difluorohexahydro-1H-pyrrolo[3,2-c]isoxazol-1-yl)-2,2-dimethylbutanoic acid], for which, in the data set with HBV, the EC50 worked out at 0.008 µM. In addition, in data set [1], the CC50 at 6 days was greater than 50 µM.
For `CCOC(=O)C1=C(CN2CC(F)(F)[C@@H]3[C@H]2CON3CCC(C)(C)C(=O)O)NC(c2nccs2)=N[C@@H]1c1ccc(F)nc1C` (single isomer, unassigned) [Compound 166, 4-((cis)-4-((5-(ethoxycarbonyl)-6-(6-fluoro-2-methylpyridin-3-yl)-2-(thiazol-2-yl)-3,6-dihydropyrimidin-4-yl)methyl)-6,6-difluorohexahydro-1H-pyrrolo[3,2-c]isoxazol-1-yl)-2,2-dimethylbutanoic acid] the same measures were 0.059 µM and greater than 100 µM.
For `COC(=O)C1=C(CN2CC(F)(F)[C@@H]3[C@H]2CON3CCC(C)(C)C(=O)O)NC(c2nccs2)=N[C@H]1c1cccc(F)c1F` (single isomer, unassigned) [Compound 167, 4-((cis)-4-((6-(2,3-difluorophenyl)-5-(methoxycarbonyl)-2-(thiazol-2-yl)-3,6-dihydropyrimidin-4-yl)methyl)-6,6-difluorohexahydro-1H-pyrrolo[3,2-c]isoxazol-1-yl)-2,2-dimethylbutanoic acid] the same measures were 0.0163 µM and greater than 100 µM.
For `COC(=O)C1=C(CN2CC(F)(F)[C@@H]3[C@H]2CON3CCC(C)(C)C(=O)O)NC(c2nccs2)=N[C@H]1c1ccc(F)cc1Cl` (single isomer, unassigned) [Compound 168, 4-((cis)-4-((6-(2-chloro-4-fluorophenyl)-5-(methoxycarbonyl)-2-(thiazol-2-yl)-3,6-dihydropyrimidin-4-yl)methyl)-6,6-difluorohexahydro-1H-pyrrolo[3,2-c]isoxazol-1-yl)-2,2-dimethylbutanoic acid] the same measures were 0.009 µM and greater than 100 µM.
With `CCOC(=O)C1=C(CN2CC(F)(F)[C@@H]3[C@H]2CON3CCC(C)(C)C(=O)O)NC(c2nccs2)=N[C@H]1c1ccc(F)cc1Cl` (single isomer, unassigned) [Compound 169, 4-((cis)-4-((6-(2-chloro-4-fluorophenyl)-5-(ethoxycarbonyl)-2-(thiazol-2-yl)-3,6-dihydropyrimidin-4-yl)methyl)-6,6-difluorohexahydro-1H-pyrrolo[3,2-c]isoxazol-1-yl)-2,2-dimethylbutanoic acid], in the data set on HBV, the half-maximal effective concentration (EC50) was 0.005 µM. The compound further had a half-maximal cytotoxic concentration (CC50) at 6 days in data set [1] greater than 50 µM.
